Non-standard residues stand in square brackets, D forms with d. Residues, ends and D or L forms follow the SMILES beside them. Nle = CCCC[C@H](N)C(=O)O
Key:
[1] = target: T1, catalytic subunit β1 of a proteasome (caspase-like activity) (Homo sapiens, UniProt P28072); conditions: reported by Kaiser et al., Chem. Bio. Chem., 2004; cited from earlier work
T1 construct: purchased Bioscience

[2] = target: T1, catalytic subunit β1 of a proteasome (caspase-like activity); experiment: 20S Proteasome StressXpress Assay Kit, AMC substrate, β1; assay type: biochemical
Description: (§1) In Reference Example 2, the proteasome inhibitory activity of TMP-CANDDY_DMT and the affinity of TMP-CANDDY_DMT with a proteasome were evaluated. As a positive control, MG-132 as a proteasome inhibitor was used.
(§2) For evaluation, 20S Proteasome StressXpress™ Assay Kit Gold (Bioscience) was used. AMC was measured by using Multi-Detection Microplate Reader (Synergy HT, BIO-TEK). The AMC was produced by cleaving the C-terminus of an AMC-binding proteasome fluorescence substrate specific to β subunits of a 20S proteasome, including β5 (chymotrypsin-like activity), β2 (trypsin-like activity), and β1 (caspase-like activity). The measuring wavelengths were 360 nm for excitation light (Ex.), and 460 nm for fluorescence (Em.).
(§3) In Reference Example 6, as in Reference Example 2, a proteasome inhibitory activity of TMP-CANDDY_ALLN and an affinity of TMP-CANDDY_ALLN with a proteasome were evaluated.

20S proteasome = target: T2, 20S proteasome (Homo sapiens, UniProt P28072+P28074+Q99436); experiment: Affinity with a proteasome, evaluated from the 20S proteasome activity assay; assay type: biochemical; conditions: concluded from the concentration dependent inhibitory activity
T2 construct: purchased Bioscience
Description: as §1, §2, §3

[3] = target: T3, catalytic subunit β2 of the proteasome (trypsin-like activity) (Homo sapiens, UniProt Q99436); experiment: 20S Proteasome StressXpress Assay Kit, AMC substrate, β2; assay type: biochemical
T3 construct: purchased Bioscience
Description: as §1, §2, §3

[4] = test system: ecDHFR protein (fusion protein of an ecDHFR protein and GFP through a HA tag); assay type: cell-based, human; conditions: HeLa cells, 24 hours after addition, vs DMSO control
[5] = target: T4, catalytic subunit β5 of the proteasome (chymotrypsin-like activity) (Homo sapiens, UniProt P28074); experiment: 20S Proteasome StressXpress Assay Kit, AMC substrate, β5; assay type: biochemical
T4 construct: purchased Bioscience
Description: as §1, §2, §3

[6] = test system: ecDHFR protein (fusion protein of an ecDHFR protein and GFP through a HA tag); experiment: Western blot of degradation of forcibly expressed ecDHFR protein in HeLa cells; assay type: cell-based, human
[7] = test system: senescence-associated acidic β-galactosidase (SA-β-gal) inducing TIG3 cells; experiment: FACS analysis of SA-β-gal in doxorubicin senescence-induced TIG3 cells (anti-aging action); assay type: cell-based, human; conditions: doxorubicin 150 nM alone vs no doxorubicin
Description: In Example 5, an anti-aging action in a senescence-associated acidic β-galactosidase (SA-β-gal) inducing TIG3 cells (human embryonic fibroblast) in which TIBC-CANDDY_MLN had been added was evaluated by FACS analysis.
TIG3 cells as normal cells were seeded in a 24-well plate at a cell density of 8×10^4 cells/well, and then cultured under conditions of 37° C. and 5 vol % CO2 for 16 hours.
After 16 hours from cell seeding, doxorubicin was added to each well at 150 nM/well to induce cellular senescence. As a medium, a serum-free medium (37° C.) in which 1 mass % L-glutamine solution (Sigma-Aldrich) was added to D-MEM (high D-glucose, phenol red, sodium pyruvate (Wako Pure Chemical Industries, Ltd.)) was used. It is noted that the L-glutamine solution was added immediately before use. After the addition of doxorubicin, culture was performed under conditions of 37° C. and 5 vol % CO2 for 24 hours.
After 24 hours from induction of senescence, TIBC-CANDDY_MLN was added to TIG3 cells as follows. As a medium, a serum-free medium (37° C.) in which 1 mass % L-glutamine solution (Sigma-Aldrich) was added to D-MEM (high D-glucose, phenol red, sodium pyruvate (Wako Pure Chemical Industries, Ltd.)) was used. It is noted that the L-glutamine solution was added immediately before use. A DMSO solution containing TIBC-CANDDY_MLN was mixed with the medium so that the concentration of DMSO was 1 vol %, and added to each well at 500 μL/well, and cultured under conditions of 37° C. and 5 vol % CO2 for 48 hours. As a control, DMSO was used.
For quantification of SA-β-gal as a senescence marker, a commercially available kit (Cellular Senescence Detection Kit-SPiDER-βGal (DOJINDO LABORATORIES)) was used. […]
A BD FACSCanto™ II (BD Biosciences) was used for flow cytometry to detect SA-β-gal labeled with FITC. […] A histogram of the FITC strength was created by an analysis software FlowJo™ (TOMY Digital Biology Co., Ltd.), and the senescence suppressing action by TIBC-CANDDY_MLN was evaluated from a shift in the histogram.

SMILES	inhibition of β1 [1]	concentration dependence of inhibitory activity against β1 [2]	affinity with a proteasome (20S proteasome)	concentration dependence of inhibitory activity against β2 [3]	proteasome inhibitory activity against β2 compared with the reference proteasome inhibitor [3]	degradation (knockdown) of the ecDHFR protein (shift of GFP/DsRed graph, FACS) [4]	concentration dependence of inhibitory activity against β5 [5]	proteasome inhibitory activity against β5 compared with the reference proteasome inhibitor [5]	proteasome inhibitory activity against β1 compared with the reference proteasome inhibitor [2]	amount of the ecDHFR protein (Western blot) ([6]; 24 hours after addition, cycloheximide 50 μg/mL added at 12 hours)	degradation of the ecDHFR protein when bortezomib is added as well ([6]; both TMP-CANDDY_DMT and bortezomib added, compared with TMP-CANDDY_DMT alone)	shift to SA-β-gal (senescence marker) positive (FACS histogram) [7]
CCCC[C@@H](C=O)NC(=O)[C@H](CC(C)C)NC(=O)[C@H](CC(C)C)NC(C)=O [ALLN, Calpain Inhibitor I] (Ac-Leu-Leu-[Nle]-aldehyde)	not inhibited											
CCCC[C@H](NC(=O)[C@H](CC(C)C)NC(=O)[C@H](CC(C)C)NC(C)=O)C(=O)NCCCCCCNC(=O)COc1c(OC)cc(Cc2cnc(N)nc2N)cc1OC [TMP-CANDDY_ALLN]		in a concentration dependent manner	had an affinity with a proteasome	in a concentration dependent manner	the inhibitory activity was weakened	degradation of the ecDHFR protein was induced	in a concentration dependent manner	the inhibitory activity was weakened				
COc1nc(NCCCCCCNC(=O)COc2c(OC)cc(Cc3cnc(N)nc3N)cc2OC)nc(OC)n1 [TMP-CANDDY_DMT]		increased in a concentration dependent manner	moderate affinity	increased in a concentration dependent manner	significantly lower proteasome inhibitory activity as compared with MG-132	degradation of the ecDHFR protein was induced	increased in a concentration dependent manner	significantly lower proteasome inhibitory activity as compared with MG-132	significantly lower proteasome inhibitory activity as compared with MG-132	reduced	degradation of the ecDHFR protein was inhibited	
COc1cccc2c1C(=O)c1c(O)c3c(c(O)c1C2=O)C[C@@](O)(C(=O)CO)C[C@@H]3O[C@H]1C[C@H](N)[C@H](O)[C@H](C)O1 [doxorubicin, reference compound]												a shift to SA-β-gal (senescence marker) positive was observed
